Data set [1] concerns the target T1, Leishmania infantum TR (LiTR) (Leishmania infantum, UniProt A4HSF7).
T1 construct: The TbTR and LiTR genes were subcloned in a pET28b vector; 6-His (cleaved yes); made in house; host or cells: E. coli BL21(DE3), pET28b
In words: LiTR enzymatic inhibition assay (NADPH oxidation at 340 nm). It counts as biochemical. The note with it: for IC50: 50 nM LiTR, 150 μM trypanothione, 100 μM NADPH, 25 °C; for gain in LiTR IC50 with respect to 5: compared to compound 5 (IC50 54.6 μM); for remaining activity at 10 µM: compound at 10 μM, mean ± SD, n = 3, read-out: LiTR residual activity %. The method, then:
(§1) Enzymatic inhibition assays were performed in 50 mM HEPES pH 7.4, 40 mM NaCl at 25 °C using a JASCO V650 spectrophotometer equipped with a JASCO EHC 716 Peltier element to ensure controlled temperature. The first experiment was carried out using 50 nM LiTR, 10 or 100 μM compound to be tested, 150 μM trypanothione (trypanothione disulfide purchased from Bachem), and 100 μM NADPH (tetrasodium salt, purchased from Calbiochem). The best inhibitor candidates were then tested at concentrations ranging from 1 nM to 250 μM to determine the IC50. Assays were initiated upon addition of 100 μM NADPH to 50 nM LiTR or hGR (human glutathione reductase purchased from Sigma-Aldrich) in the presence of different concentration of compounds and 150 μM trypanothione. For both experiments, the oxidation of NADPH was followed as a decrease in absorbance at 340 nm. For each concentration of compound, the initial velocity of the NADPH oxidation was used to determine the percentage of LiTR activity with respect to that in the absence of any compound. The IC50 was determined upon fitting the residual activity of TR as a dose–response logistic equation defined as ymin + (ymax – ymin)/(1 + (x/IC50)^slope). […] The Ki was determined graphically upon linear fitting of data points for each trypanothione concentration. Data analysis was performed with QtiPlot 0.9.8.9 svn 2288, and graphs were made with Matplotlib.
(§2) Figure S3. Inhibition assay of LiTR (red) and hGR (grey) with compounds 5-6, 9-10 and 14.
(§3) Enzymatic assays were carried out at 25°C on a JASCO V650 spectrophotometer equipped with a JASCO EHC716 Peltier unit. Compound concentrations used during the experiments range from 1 […]
(§4) higher than 30 µM and 20 µM, respectively. Briefly, 50 nM LiTR or hGR (Sigma Aldrich) were mixed in 50 mM HEPES pH 7.4, 40 mM NaCl with each compound and 150 µM trypanothione or glutathione. After 3-minute incubation at 25°C, the measurement was initiated upon addition of 100 µM NADPH. The oxidation of NADPH was followed as a decrease in absorbance at 340 nm. Each initial velocity of LiTR enzymatic reaction with the compounds was expressed as a percentage of residual activity with respect to that in the absence of compound. Each data point is the mean of two measurements. The IC50 was determined upon fitting the data as a dose response logistic equation defined by the Kaleidagraph software as ymin+(ymax-ymin)/(1+(x/IC50)^slope).
(§5) (1 picture or pasted object on this page, not shown here)

Data set [2] addresses T2, hGR (human glutathione reductase) (Homo sapiens, UniProt P00390).
T2 construct: purchased Sigma-Aldrich
T2 sequence (P00390 44-522): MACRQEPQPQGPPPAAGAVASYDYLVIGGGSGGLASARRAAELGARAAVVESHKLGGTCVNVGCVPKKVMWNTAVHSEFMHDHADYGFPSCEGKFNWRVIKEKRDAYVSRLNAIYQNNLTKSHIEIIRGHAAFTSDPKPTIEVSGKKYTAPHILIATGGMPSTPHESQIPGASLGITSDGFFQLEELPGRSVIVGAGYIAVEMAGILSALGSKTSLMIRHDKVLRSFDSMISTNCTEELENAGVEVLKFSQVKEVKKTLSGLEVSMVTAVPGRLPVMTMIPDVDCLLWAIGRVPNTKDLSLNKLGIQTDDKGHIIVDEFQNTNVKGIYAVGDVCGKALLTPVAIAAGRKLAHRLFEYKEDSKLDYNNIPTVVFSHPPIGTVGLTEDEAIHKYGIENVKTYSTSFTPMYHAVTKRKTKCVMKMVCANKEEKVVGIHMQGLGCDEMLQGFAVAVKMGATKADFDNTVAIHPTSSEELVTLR
Description: hGR enzymatic inhibition assay (NADPH oxidation at 340 nm). It counts as biochemical. To be noted: for IC50: 50 nM hGR, 100 μM NADPH, 25 °C; for SI (ratio of GR IC50/TR IC50): hGR versus LiTR. The method, then:
as §1, §2, §3, §4, §5

Data set [3] can be described thus: Cytotoxicity assay on primary murine macrophages (MTT). It counts as cell-based, Balb/c mice. The note with it: Balb/c, mouse, primary peritoneal exudate macrophages, read-out: primary murine macrophage CC50 ± SE (95% CI). On the procedure: (§6) To assess the cytotoxicity of compounds on mammalian macrophages, we tested all the compounds against both human leukemia monocyte cell line (THP-1 cells, ATCC) differentiated into macrophages by treatment with 40 ng/mL of phorbol myristate acetate (PMA; Sigma) for 48 h and peritoneal exudate macrophages harvested from Balb/c mice. […] Cell viability was evaluated using the MTT assay, and the concentration of the compound that produced a 50% reduction of cell viability in treated culture cells with respect to untreated ones (CC50) was determined by GraphPad Prism 5.0 (GraphPad Software Inc., San Diego, USA). […] The selectivity index for each compound was calculated as the ratio of cytotoxicity (CC50) in macrophages cells to activity (IC50) against Leishmania axenic amastigotes. The experiments were performed in triplicate, and two independent experiments were conducted.

A short description of data set [4]: Cytotoxicity assay on human THP-1-derived macrophages (MTT). Type of data set: cell-based. The note with it: human, THP-1 cells differentiated into macrophages with PMA, 72 h, MTT; read-out: human THP-1-derived macrophage CC50 ± SE (95% CI). The method, then: as §6
For data set [5], the system named is human THP-1-derived macrophages. The data set is described as above. Type of data set: cell-based. The method, then: as §6

T1 sequence (A4HSF7 1-491): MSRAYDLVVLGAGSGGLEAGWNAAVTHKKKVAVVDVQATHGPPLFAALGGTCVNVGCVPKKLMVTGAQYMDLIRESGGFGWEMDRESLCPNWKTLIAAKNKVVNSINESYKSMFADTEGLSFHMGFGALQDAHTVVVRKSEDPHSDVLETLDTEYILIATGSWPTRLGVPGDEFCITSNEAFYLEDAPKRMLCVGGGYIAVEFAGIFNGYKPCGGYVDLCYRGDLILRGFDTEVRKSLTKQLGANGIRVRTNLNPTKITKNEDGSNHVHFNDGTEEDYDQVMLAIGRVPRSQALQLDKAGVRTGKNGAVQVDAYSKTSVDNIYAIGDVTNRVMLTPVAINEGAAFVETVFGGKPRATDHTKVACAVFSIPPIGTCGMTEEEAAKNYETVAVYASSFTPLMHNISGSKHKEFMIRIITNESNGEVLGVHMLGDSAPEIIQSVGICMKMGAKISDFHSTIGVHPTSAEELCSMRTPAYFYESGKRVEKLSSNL

As usually defined, the IC50 is the midpoint of a concentration-inhibition curve. The low end stands for greater potency in that assay, the high end for weaker potency in that assay. As a reminder, the CC50 is the concentration that lowers cell viability or growth by half. Regarding `C[N+]1(CCCc2ccccc2)CCN(C(=O)N(Cc2ccc(C(=O)NCCc3ccc(F)cc3)o2)c2ccc(F)cc2)CC1.[I-]` [Compound 9, 4-(((5-((4-Fluorophenethyl)carbamoyl)furan-2-yl)methyl)(4-fluorophenyl)carbamoyl)-1-methyl-1-(3-phenylpropyl)piperazin-1-ium Iodide], in data set [1], the concentration for half-maximal inhibition (IC50) worked out at 20.5 ± 2 µM, the “gain in LiTR IC50 with respect to 5” value is “about 3 fold” and the remaining activity at 10 µM was found to be 48.5 ± 7.9%. For the same molecule, in data set [2], half-maximal inhibition (IC50) was put at 62.4 ± 12.4 µM and the “SI (ratio of GR IC50/TR IC50)” value was 3.0. In addition, in data set [3], the CC50 at 72 h came to 29.9 ± 4.2 µM. Also, the CC50 at 72 h in data set [4] is 38.4 ± 11 µM. Besides, the “SI = human THP-1-derived macrophage CC50/axenic amastigote EC50” value in data set [5] is given as 3.7.

For `O=C(NCCc1ccc(F)cc1)c1ccc(CN(C(=O)N2CC[N+](CCCc3ccccc3)(Cc3ccc(Cl)c(Cl)c3)CC2)c2ccc(F)cc2)o1.[I-]` [Compound 10, 1-(3,4-Dichlorobenzyl)-4-(((5-((4-fluorophenethyl)carbamoyl)furan-2-yl)methyl)(4-fluorophenyl)carbamoyl)-1-(3-phenylpropyl)piperazin-1-ium Iodide], in data set [1], half-maximal inhibition (IC50) required 1.31 ± 0.07 µM, the “gain in LiTR IC50 with respect to 5” value came to 42 fold and the remaining activity at 10 µM was determined as 22 ± 11.6%. In data set [2], the IC50 came out at 2.3 ± 0.1 µM and the “SI (ratio of GR IC50/TR IC50)” value is recorded as 1.7. Also, the half-maximal cytotoxic concentration (CC50) at 72 h in data set [3] is 12.5 ± 0.8 µM. For the same molecule, the CC50 at 72 h in data set [4] was 16 ± 2.4 µM. For the same molecule, the “SI = human THP-1-derived macrophage CC50/axenic amastigote EC50” value in data set [5] worked out at 1.4.

For `O=C(NCCc1ccc(F)cc1)c1ccc(CNC(=O)N2CC[N+](CCCc3ccccc3)(Cc3ccc(Cl)c(Cl)c3)CC2)o1.[I-]` [Compound 14, 1-(3,4-Dichlorobenzyl)-4-(((5-((4-fluorophenethyl)carbamoyl)furan-2-yl)methyl)carbamoyl)-1-(3-phenylpropyl)piperazin-1-ium Iodide], in data set [1], the IC50 was 2.35 ± 0.21 µM, the “gain in LiTR IC50 with respect to 5” value is listed as 23 fold and the remaining activity at 10 µM was 10.3 ± 2.8%. Moreover, in data set [2], the concentration for half-maximal inhibition (IC50) turned out to be 3.7 ± 0.3 µM and the “SI (ratio of GR IC50/TR IC50)” value is reported as 1.6. The CC50 at 72 h in data set [3] amounted to 12.7 ± 0.9 µM. Besides, the cytotoxic concentration (CC50) at 72 h in data set [4] was 20.5 ± 3.6 µM. Besides, in data set [5], the “SI = human THP-1-derived macrophage CC50/axenic amastigote EC50” value was 2.3.
